“Also recorded” adds a separate entry of the source. Read-outs that look alike come from different tables or passages of the source.
Assays:
M. tuberculosis Erdman [1] = assay: M. tuberculosis Erdman growth in broth, various concentrations of inhibitor (Examples 5, 12); assay type: cell-based, Mycobacterium tuberculosis; conditions: for inhibitory effect on M. tuberculosis growth (comparison of known GS inhibitors): relative to L-methionine-S-sulfoximine
M. tuberculosis Erdman [2] = assay: Effect of L-glutamine on M. tuberculosis Erdman broth cultures with or without MS, Example 13; assay type: cell-based, Mycobacterium tuberculosis; conditions: for effect of L-glutamine on M. tuberculosis growth without MS: no MS, FIG. 14; for effect of L-glutamine on M. tuberculosis growth with subinhibitory MS: subinhibitory (minimally inhibitory, FIG. 15) MS
Method: L-glutamine (L-GLN) was added to MS-treated cultures of M. tuberculosis Erdman.

[3] = target: T1, extracellular glutamine synthetase (Mycobacterium tuberculosis, UniProt P9WN39)
glutamine synthetase = conditions: Manning et al., 1969; cited from earlier work
[4] = target: T2, extracellular glutamine synthetase (Mycobacterium avium, UniProt A0ACG7XF78); conditions: M. avium vs highly pathogenic strains
M. phlei = conditions: 0.2, 2, 20, 200 μM MS; FIG. 9
M. tuberculosis Erdman [5] = conditions: 200 μM MS
M. bovis BCG = conditions: FIG. 7; listed as MS
M. smegmatis 1-2c = conditions: 0.2, 2, 20, 200 μM MS; FIG. 10
[6] = system: L. pneumophila Philadelphia 1; conditions: 0.2, 2, 20, 200 μM MS; FIG. 11
E. coli DH5α = conditions: 0.2, 2, 20, 200 μM MS; FIG. 12
THP-1 cells = assay: Growth/toxicity in human monocyte cell line THP-1, Examples 14 and 15; assay type: cell-based; conditions: for effect on growth rate of THP-1 cells: 200 μM MS, FIG. 19
M. tuberculosis H37Rv = conditions: 0.2-200 μM MS; FIG. 5; similar to Erdman; listed as MS
[7] = target: T1, extracellular glutamine synthetase; assay: biochemical; conditions: read-out: extracellular GS activity relative to untreated cultures
[8] = system: M. tuberculosis, Erdman strain; conditions: 2000 μM MS added at 0, 1, 2, 3, 4 weeks; FIG. 3
[9] = target: T2, extracellular glutamine synthetase; assay: biochemical; conditions: read-out: concentration of MS required to completely inhibit glutamine synthetase activity
[10] = target: cell-associated glutamine synthetase (Mycobacterium tuberculosis, UniProt P9WN39); conditions: 20 μM MS; vs untreated; FIG. 22
M. tuberculosis Erdman [11] = assay: Control: effect of SDS on M. tuberculosis Erdman growth in broth culture (FIG. 24); assay type: cell-based, Mycobacterium tuberculosis; conditions: 0.1% SDS
Method: In the presence of 200 μM MS, M. tuberculosis growth was inhibited by almost 1 log by two days and by nearly 2 logs by five days.

CS(=N)(=O)CCC(N)C(=O)O (racemic) [DL-methionine-SR-sulfoximine, reference compound]
potency in inhibiting growth of M. tuberculosis relative to L-methionine-S-sulfoximine (M. tuberculosis Erdman [1]; FIG. 13 vs FIG. 4): about 1/4 | inhibitory effect on M. tuberculosis growth (comparison of known GS inhibitors) (M. tuberculosis Erdman [1]): significantly weaker inhibitory effect on the growth of M. tuberculosis

NC(=O)CC[C@H](N)C(=O)O [L-glutamine]
effect of L-glutamine on MS inhibition of M. tuberculosis (M. tuberculosis Erdman [2]; inhibitory MS (2, 20, 200 μM), FIGS. 16-18): reverse the inhibitory effect of MS in a dose-dependent fashion; also recorded: reversed the inhibitory effect of MS | effect of L-glutamine on M. tuberculosis growth without MS (M. tuberculosis Erdman [2]): no or little influence on M. tuberculosis growth; also recorded: lack of effect | effect of L-glutamine on M. tuberculosis growth without MS (M. tuberculosis Erdman [2]; listed as L-GLN): no effect on the growth | effect of L-glutamine on M. tuberculosis growth with subinhibitory MS (M. tuberculosis Erdman [2]): no or little influence on M. tuberculosis growth; also recorded: lack of effect | effect of L-glutamine on M. tuberculosis growth with subinhibitory MS (M. tuberculosis Erdman [2]; listed as L-GLN): no effect on the growth

C[S@](=N)(=O)CC[C@H](N)C(=O)O [L-methionine-S-sulfoximine]
preferential inhibition of extracellular over cell-associated GS activity ([3]; 20 μM MS, extracellular vs cell-associated): preferentially inhibits extracellular GS activity | extracellular GS activity in M. tuberculosis cultures ([3]; 0.2-200 μM MS from week 1, FIG. 20): marked decrease in extracellular GS activity | increase in extracellular GS activity over 3 weeks (week 1 to week 4) ([3]; 2-200 μM MS): little or no increase in extracellular GS activity | inhibition of glutamine synthetase (glutamine synthetase): inhibits glutamine synthetase | growth inhibition of M. tuberculosis Erdman in broth (M. tuberculosis Erdman [1]; 2 μM MS): strongly inhibited | growth inhibition of M. tuberculosis Erdman in broth (M. tuberculosis Erdman [1]; 20 μM MS): completely inhibited | growth inhibition of M. tuberculosis Erdman in broth (M. tuberculosis Erdman [1]; 200 μM MS): completely inhibited | growth inhibition of M. tuberculosis Erdman in broth, overall (M. tuberculosis Erdman [1]; 0.2, 2, 20, 200 μM, OD540 weekly, FIG. 4, listed as MS): strongly inhibits, in dose-dependent fashion; also recorded: inhibited the growth of M. tuberculosis Erdman in broth culture at all concentrations tested | minimal effective concentration (M. tuberculosis Erdman [1]; Mycobacterium tuberculosis, broth culture, FIGS. 4 and 5 (Erdman and H37Rv), read-out: MS concentrations as low as ... inhibited M. tuberculosis growth): 0.2 µM | concentration required to inhibit GS activity compared with M. tuberculosis and M. bovis [4]: higher than that required to inhibit the glutamine synthetase activity of the highly pathogenic strains of M. tuberculosis and M. bovis | growth inhibition of M. phlei (M. phlei): lack of effect | Colony forming units of M. tuberculosis Erdman from infected THP-1 human monocytes (M. tuberculosis Erdman [5]; Day 0): 8.58 × 10^5 CFU | Colony forming units of M. tuberculosis Erdman from infected THP-1 human monocytes (M. tuberculosis Erdman [5]; Day 2): 6.22 × 10^5 CFU | Colony forming units of M. tuberculosis Erdman from infected THP-1 human monocytes (M. tuberculosis Erdman [5]; Day 5a, lysed with sodium dodecyl sulfate): 4.80 × 10^5 CFU | Colony forming units of M. tuberculosis Erdman from infected THP-1 human monocytes (M. tuberculosis Erdman [5]; Day 5b, lysed by vortexing): 4.32 × 10^5 CFU | inhibition of intracellular M. tuberculosis growth (M. tuberculosis Erdman [5]; by five days): ~2 logs | inhibition of intracellular M. tuberculosis growth (M. tuberculosis Erdman [5]; by two days): ~1 log | growth inhibition of M. bovis BCG in broth (M. bovis BCG): strongly inhibits, in dose-dependent fashion | growth inhibition of M. smegmatis (M. smegmatis 1-2c): lack of effect | growth inhibition of L. pneumophila [6]: lack of effect | growth inhibition of E. coli (E. coli DH5α): lack of effect | growth and viability of THP-1 cells (THP-1 cells; 0 or 200 μM MS): grew at the same rate and maintained high viability | effect on growth rate of THP-1 cells (THP-1 cells): lack of effect | effect on growth rate of THP-1 cells (THP-1 cells; listed as MS): no influence on the growth rate of these cells | toxicity against THP-1 cells (THP-1 cells; up to 200 μM MS, listed as MS): no toxicity toward a human monocyte cell line; also recorded: no evidence of toxicity against THP-1 cells; also recorded: no evident toxicity for THP-1 cells up to a concentration of 200 μM | growth inhibition of M. tuberculosis H37Rv in broth (M. tuberculosis H37Rv): strongly inhibits, in dose-dependent fashion | activity at 20 µM [7]: < 25% | inhibition of M. tuberculosis growth in broth by time of addition [8]: inhibited the growth of M. tuberculosis in broth cultures when added up to 3 weeks following inoculation | IC100 [9]: 200 µM | cell-associated GS activity [10]: only slightly reduced

CCCCCCCCCCCCOS(=O)(=O)[O-].[Na+] [SDS, sodium dodecyl sulfate]
influence of SDS on growth of M. tuberculosis in broth (M. tuberculosis Erdman [11]): had no influence on growth of M. tuberculosis in broth culture

CP(=O)(O)CC[C@H](N)C(=O)O [phosphinothricin, reference compound]
inhibitory effect on M. tuberculosis growth (comparison of known GS inhibitors) (M. tuberculosis Erdman [1]): only a very minor inhibitory effect on M. tuberculosis growth
